For one experiment, the target named is human orexin 2 receptor (Homo sapiens (Human), UniProt O43614). The experiment is described as follows: Human orexin 2 receptor radioligand binding. Conditions: human orexin 2 receptor; averages of 2-20 runs; read-out: hOX2 Ki. On the procedure:
(§1) Data are analyzed using pc-Sandy macro and graphed on Graphpad Prism 5. For analysis, each concentration point is averaged from triplicate values and the averaged values are plotted on Graphpad Prism. The IC50 was determined by applying the following equation (GraphPad Prism 5.0, SanDiego) for one site competition where X=log (concentration) and Y=specific binding. Top denotes the total [^3H]-(1-(5-(2-fluoro-phenyl)-2-methyl-thiazol-4-yl)-1-((S)-2-(5-phenyl-(1,3,4)oxadiazol-2-ylmethyl)-pyrrolidin-1-yl)-methanone) binding, bottom denotes the nonspecific [^3H]-(1-(5-(2-fluoro-phenyl)-2-methyl-thiazol-4-yl)-1-((S)-2-(5-phenyl-(1,3,4)oxadiazol-2-ylmethyl)-pyrrolidin-1-yl)-methanone) binding. Graphpad Prism calculates Ki value from IC50 and the pre-determined Kd values for [^3H]-(1-(5-(2-fluoro-phenyl)-2-methyl-thiazol-4-yl)-1-((S)-2-(5-phenyl-(1,3,4)oxadiazol-2-ylmethyl)-pyrrolidin-1-yl)-methanone) and [3H]-EMPA. The Ki for each compound is then uploaded into 3DX. Each run comprises individual compounds in triplicate. The data in Table 1 and Table 2 represent averages from between 2-20 runs
Human Orexin 2 Receptor Radioligand Binding Studies
HEK293 stably expressing human orexin 2 receptor (Genebank accession number NM_001526) were grown to confluency in DMEM (Hyclone, cat # SH30022), 10% FBS, 1× Pen/Strep, 1× NaPyruvate, 10 mM HEPES, 600 ug/ml G418 media on 150 cm^2 tissue culture plates, washed with 5 mM EDTA in PBS (HyClone Dulbecco's Phosphate Buffered Saline 1× with Calcium and Magnesium, Cat # SH30264.01, hereafter referred to simply as PBS) and scraped into 50 ml tubes. After centrifugation (2K×G, 5 min at 4° C.), the supernatant was aspirated and the pellets frozen and stored at −80° C. […] Each cell pellet from a 15 cm plate was resuspended in 10 mL, stored on ice, and homogenized for 45 sec just prior to addition to the reactions. […] The final concentration of DMSO in the reactions is equal to or less than 0.1%. Total and nonspecific binding was determined in the absence and presence of 10 μM almorexant. The total volume of each reaction is 200 μL (20 μL of diluted compounds, 80 μL of [^3H]-EMPA diluted in PBS and 100 μL of the cell suspension). […] The plates were washed 3 times by aspirating 30 ml PBS through the plates. Plates were dried in 55° C. oven for 60 min, scintillation fluid was added, and the radioactivity was counted on a Topcount (Packard).

In the next experiment the target is rat orexin 1 receptor (Rattus norvegicus, UniProt P56718). Description: Rat orexin 1 receptor radioligand binding. How it is done: as §1
Rat and Human Orexin 1 Receptor Radioligand Binding Studies
After centrifugation (2K×G, 5 min at 4° C.), the supernatant was aspirated and the pellets frozen and stored at −80° C. […] Each cell pellet from a 15 cm plate was resuspended in 10 mL, stored on ice, and homogenized for 45 sec prior to addition to the reactions. […] The final concentration of DMSO in the reactions is equal to or less than 0.1%. Total and nonspecific binding was determined in the absence and presence of 10 μM almorexant. The total volume of each reaction is 200 μL (20 μL of diluted compounds, 80 μL of [^3H]-(1-(5-(2-fluoro-phenyl)-2-methyl-thiazol-4-yl)-1-((S)-2-(5-phenyl-(1,3,4)oxadiazol-2-ylmethyl)-pyrrolidin-1-yl)-methanone) diluted in PBS and 100 μL of the cell suspension). […] The plates were washed 3 times by aspirating 30 ml PBS through the plates. Plates were dried in 55° C. oven for 60 min, scintillation fluid was added, and the radioactivity was counted on a Topcount (Packard).

Setting [1] is: rat orexin 1 receptor, averages of 2-20 runs, read-out: rOX1 Ki.

Experimental findings from US9611277B2 (Janssen Pharmaceutica NV, priority 2013, dated 2017) are described below.

Read-outs that look alike come from different tables or passages of the source. Where only a bound is given, the exact number is not on record here.

Sequence of human orexin 2 receptor (O43614 whole entry): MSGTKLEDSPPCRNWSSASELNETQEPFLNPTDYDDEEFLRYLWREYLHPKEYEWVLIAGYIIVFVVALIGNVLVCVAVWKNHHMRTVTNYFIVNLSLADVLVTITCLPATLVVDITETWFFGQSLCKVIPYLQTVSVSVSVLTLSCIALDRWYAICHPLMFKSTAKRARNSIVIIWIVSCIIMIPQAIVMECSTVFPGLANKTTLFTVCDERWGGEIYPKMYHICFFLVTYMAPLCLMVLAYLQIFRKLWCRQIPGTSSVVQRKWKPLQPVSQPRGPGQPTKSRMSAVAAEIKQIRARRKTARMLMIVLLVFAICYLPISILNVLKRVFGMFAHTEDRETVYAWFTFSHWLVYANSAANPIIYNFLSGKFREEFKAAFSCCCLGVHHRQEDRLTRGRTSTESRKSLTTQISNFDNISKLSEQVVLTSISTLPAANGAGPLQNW

For `Cc1nc2sccn2c1C(=O)N1CC2CC(Oc3ccc(C(F)(F)F)cn3)C1C2` (racemic) [Example 6, (R/S)-(6-methylimidazo[2,1-b]thiazol-5-yl)(6-((5-(trifluoromethyl)pyridin-2-yl)oxy)-2-azabicyclo[2.2.1]heptan-2-yl)methanone], the Ki on human orexin 2 receptor and on rat orexin 1 receptor (setting [1]) was greater than 10000 nM throughout.
For `O=C(c1cccc(F)c1-n1nccn1)N1CC2CCC1C(Oc1ccc(C(F)(F)F)cn1)C2` (racemic) [Example 249, (R/S)-(3-fluoro-2-(2H-1,2,3-triazol-2-yl)phenyl)(6-((5-(trifluoromethyl)pyridin-2-yl)oxy)-2-azabicyclo[2.2.2]octan-2-yl)methanone], the inhibition constant (Ki) on human orexin 2 receptor came to 758 nM.
Take `O=C(c1ccccc1-n1nccn1)N1CC2CCC1C(Nc1cnc(C(F)(F)F)cn1)C2` (racemic) [Example 254, (R/S)-(2-(2H-1,2,3-triazol-2-yl)phenyl)(6-((5-(trifluoromethyl)pyrazin-2-yl)amino)-2-azabicyclo[2.2.2]octan-2-yl)methanone]: the inhibitory constant (Ki) at human orexin 2 receptor came to 307 nM; at rat orexin 1 receptor, 12 nM.
`O=C(c1cccc(F)c1-n1nccn1)N1CC2CCC1C(Nc1cnc(C(F)(F)F)cn1)C2` (racemic) [Example 255, (R/S)-(3-fluoro-2-(2H-1,2,3-triazol-2-yl)phenyl)(6-((5-(trifluoromethyl)pyrazin-2-yl)amino)-2-azabicyclo[2.2.2]octan-2-yl)methanone]: the inhibition constant (Ki) at human orexin 2 receptor was 1000 nM.
Still for that read-out and setting: with `O=C(c1c(F)cccc1-c1ncccn1)N1C[C@H]2C[C@@H](Oc3ccc(C(F)(F)F)cn3)[C@@H]1C2` [Example 38, (2-fluoro-6-(pyrimidin-2-yl)phenyl)((1S,4R,6R)-6-((5-(trifluoromethyl)pyridin-2-yl)oxy)-2-azabicyclo[2.2.1]heptan-2-yl)methanone] the figure was 633 nM.
On to `COc1cccc(-c2ccn[nH]2)c1C(=O)N1C[C@H]2C[C@@H](Oc3ccc(C(F)(F)F)cn3)[C@@H]1C2` [Example 39, (2-methoxy-6-(1H-pyrazol-5-yl)phenyl)((1S,4R,6R)-6-((5-(trifluoromethyl)pyridin-2-yl)oxy)-2-azabicyclo[2.2.1]heptan-2-yl)methanone], for which the Ki on rat orexin 1 receptor (setting [1]) was 72 nM.
Still for that read-out and setting: the same measure for `COc1cccc(-c2ncccn2)c1C(=O)N1C[C@H]2C[C@@H](Oc3ccc(C(F)(F)F)cn3)[C@@H]1C2` [Example 40, (2-methoxy-6-(pyrimidin-2-yl)phenyl)((1S,4R,6R)-6-((5-(trifluoromethyl)pyridin-2-yl)oxy)-2-azabicyclo[2.2.1]heptan-2-yl)methanone]: 15 nM.
Take `O=C(c1cc(F)ccc1-n1nccn1)N1C[C@H]2C[C@@H](Nc3ccc(C(F)(F)F)cn3)[C@@H]1C2` [Example 57, (5-fluoro-2-(2H-1,2,3-triazol-2-yl)phenyl)((1S,4S,6R)-6-((5-(trifluoromethyl)pyridin-2-yl)amino)-2-azabicyclo[2.2.1]heptan-2-yl)methanone]: the inhibitory constant (Ki) at human orexin 2 receptor amounted to 225 nM; at rat orexin 1 receptor (setting [1]), 5 nM.
The matching figures for `O=C(c1cccc(F)c1-c1ncccn1)N1C[C@H]2C[C@@H](Oc3ncccc3C(F)(F)F)[C@@H]1C2` [Example 96, (3-fluoro-2-(pyrimidin-2-yl)phenyl)((1S,4R,6R)-6-((3-(trifluoromethyl)pyridin-2-yl)oxy)-2-azabicyclo[2.2.1]heptan-2-yl)methanone]: 1700 nM and 320 nM.
The matching figures for `O=C(c1ccccc1-n1nccn1)N1C[C@H]2C[C@@H](Oc3ccccn3)[C@@H]1C2` [Example 102, (2-(2H-1,2,3-triazol-2-yl)phenyl)((1S,4R,6R)-6-(pyridin-2-yloxy)-2-azabicyclo[2.2.1]heptan-2-yl)methanone]: 1600 nM and 404 nM.
The matching figures for `Cc1ccc(C(=O)N2C[C@H]3C[C@@H](Oc4ccccn4)[C@@H]2C3)c(-n2nccn2)n1` [Example 103, (6-methyl-2-(2H-1,2,3-triazol-2-yl)pyridin-3-yl)((1S,4R,6R)-6-(pyridin-2-yloxy)-2-azabicyclo[2.2.1]heptan-2-yl)methanone]: greater than 10000 nM and greater than 10000 nM.
As for `O=C(c1cccc(F)c1-c1ncccn1)N1C[C@H]2C[C@@H](Oc3ccccn3)[C@@H]1C2` [Example 104, (3-fluoro-2-(pyrimidin-2-yl)phenyl)((1S,4R,6R)-6-(pyridin-2-yloxy)-2-azabicyclo[2.2.1]heptan-2-yl)methanone], the Ki on human orexin 2 receptor worked out at 5000 nM; at rat orexin 1 receptor (setting [1]), 497 nM.
The matching figures for `Cc1ccc(-n2nccn2)c(C(=O)N2C[C@H]3C[C@@H](Oc4ccc(F)cn4)[C@@H]2C3)n1` [Example 119, ((1S,4R,6R)-6-((5-fluoropyridin-2-yl)oxy)-2-azabicyclo[2.2.1]heptan-2-yl)(6-methyl-3-(2H-1,2,3-triazol-2-yl)pyridin-2-yl)methanone]: 3600 nM and 262 nM.
The matching figures for `Cc1cnc(O[C@@H]2C[C@H]3C[C@@H]2N(C(=O)c2nc(C)ccc2-n2nccn2)C3)nc1` [Example 132, (6-methyl-3-(2H-1,2,3-triazol-2-yl)pyridin-2-yl)((1S,4R,6R)-6-((5-methylpyrimidin-2-yl)oxy)-2-azabicyclo[2.2.1]heptan-2-yl)methanone]: 6800 nM and 425 nM.
The matching figures for `Cc1cnc(O[C@@H]2C[C@H]3C[C@@H]2N(C(=O)c2ncc(C)cc2-c2ncccn2)C3)nc1` [Example 134, (5-methyl-3-(pyrimidin-2-yl)pyridin-2-yl)((1S,4R,6R)-6-((5-methylpyrimidin-2-yl)oxy)-2-azabicyclo[2.2.1]heptan-2-yl)methanone]: greater than 10000 nM and 668 nM.
For `CCc1cnc(O[C@@H]2C[C@H]3C[C@@H]2N(C(=O)c2nc(C)ccc2-n2nccn2)C3)nc1` [Example 136, ((1S,4R,6R)-6-((5-ethylpyrimidin-2-yl)oxy)-2-azabicyclo[2.2.1]heptan-2-yl)(6-methyl-3-(2H-1,2,3-triazol-2-yl)pyridin-2-yl)methanone], the Ki on human orexin 2 receptor came to 4700 nM; at rat orexin 1 receptor (setting [1]) it was 380 nM.
The matching figures for `CCc1cnc(O[C@@H]2C[C@H]3C[C@@H]2N(C(=O)c2nc(C)ccc2-c2ncccn2)C3)nc1` [Example 138, ((1S,4R,6R)-6-((5-ethylpyrimidin-2-yl)oxy)-2-azabicyclo[2.2.1]heptan-2-yl)(6-methyl-3-(pyrimidin-2-yl)pyridin-2-yl)methanone]: 2700 nM and 300 nM.
The matching figures for `Cc1ccc(-n2nccn2)c(C(=O)N2C[C@H]3C[C@@H](Oc4ccc(C(F)(F)F)nn4)[C@@H]2C3)n1` [Example 140, (6-methyl-3-(2H-1,2,3-triazol-2-yl)pyridin-2-yl)((1S,4R,6R)-6-((6-(trifluoromethyl)pyridazin-3-yl)oxy)-2-azabicyclo[2.2.1]heptan-2-yl)methanone]: 7700 nM and 330 nM.
Take `O=C(c1cccc(F)c1-n1nccn1)N1C[C@@H]2CC[C@H]1[C@H](Nc1cnc(C(F)(F)F)cn1)C2` [Example 274, (3-fluoro-2-(2H-1,2,3-triazol-2-yl)phenyl)((1S,4R,6R)-6-((5-(trifluoromethyl)pyrazin-2-yl)amino)-2-azabicyclo[2.2.2]octan-2-yl)methanone]: the inhibition constant (Ki) on human orexin 2 receptor was 534 nM.
On the same count and under the same terms, with `COc1cccc(-n2nccn2)c1C(=O)N1C[C@H]2C[C@@H](Oc3ccc(C(F)(F)F)cn3)[C@@H]1C2` [Example 289, (2-methoxy-6-(2H-1,2,3-triazol-2-yl)phenyl)((1S,4R,6R)-6-((5-(trifluoromethyl)pyridin-2-yl)oxy)-2-azabicyclo[2.2.1]heptan-2-yl)methanone] the figure was 207 nM.

As usually defined, the Ki is the equilibrium dissociation constant of an inhibitor or competing ligand from its target.
